The text below walks through data of PubChem BioAssay (NCI).

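Dose response: 5 concentrations. Exposure: 48 h. Format: 96-well plates. Endpoint: linear interpolation; highest concentration if not reached. GI50 marks 50% less growth. At the TGI there is no net growth.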 Bounds are passed on as bounds.

Some test systems named below: ACHN renal; DU-145 prostate; HOP-62 NSCLC; KM12 colon; NCI/ADR-RES ovarian; OVCAR-3 ovarian; SW-620 colon; T-47D breast; TK-10 renal; NCI-H226 lung.
Assay in all cases: growth of human tumour cells (NCI), 48 h

Turning to `NP1(Oc2ccc(F)cc2)=NP(N)(Oc2ccc(F)cc2)=NP(Oc2ccc(F)cc2)(Oc2ccc(F)cc2)=N1` (stereo unspecified), the TGI in the assay on ACHN renal is 12.1 µM; in the assay on DU-145 prostate, 20.1 µM; in the assay on HOP-62 NSCLC, 21.5 µM; in the assay with KM12 colon it was 16.2 µM; with NCI/ADR-RES ovarian it was 18.4 µM; in the assay on OVCAR-3 ovarian, 16 µM. Also, the TGI worked out at 24.8 µM with SW-620 colon, 7.27 µM in the assay on T-47D breast and 12.3 µM in the assay on TK-10 renal.

`Cc1nc2ccccc2c(=O)n1/N=C(\N=Nc1cc(Cl)ccc1Cl)c1ccc(N(C)C)cc1`: the TGI with ACHN renal was > 100 µM; with HOP-62 NSCLC, 83 µM; with SW-620 colon, > 100 µM; with TK-10 renal it was > 100 µM.

On to `C#Cc1c(C)c(/C=C/C(C)=C\C(=O)OC)n(C)c1C`, for which the TGI in the assay on ACHN renal, in the assay with HOP-62 NSCLC, in the assay on KM12 colon, in the assay on NCI-H226 lung, with OVCAR-3 ovarian and with SW-620 colon was > 100 µM each time. In the assay with TK-10 renal, the TGI is > 100 µM.

With `CC(C)(C)n1cc(-c2ccnc(NCCCNS(=O)(=O)c3cccc4ccccc34)c2)c(-c2cccc(O)c2)n1`, the GI50 with ACHN renal was 2.7 µM; in the assay on DU-145 prostate, 2.65 µM; with KM12 colon it was 2.34 µM; in the assay with NCI-H226 lung, 1.97 µM; in the assay on OVCAR-3 ovarian it was 2.06 µM; in the assay with SW-620 colon it was 1.81 µM. Further, the GI50 in the assay on T-47D breast was 2.22 µM; in the assay on TK-10 renal it was 2.85 µM. Besides, the TGI in the assay with ACHN renal is 7.25 µM; with DU-145 prostate, 7.45 µM; with KM12 colon it was 5.42 µM; with NCI-H226 lung, 4.36 µM; in the assay on OVCAR-3 ovarian, 4.22 µM; with SW-620 colon, 3.62 µM. In addition, the TGI with T-47D breast is 6.18 µM; with TK-10 renal it was 9.73 µM.

Regarding `C=C1C(=O)C23C(O)CC4C(C)(C)CCC(O)C4(C)C2CC(OC(C)=O)C1[C@H]3O` (stereo partly specified), the TGI in the assay on ACHN renal is 8.94 µM; in the assay with HOP-62 NSCLC it was 28.2 µM; in the assay on KM12 colon, 31.1 µM; in the assay on NCI-H226 lung it was 28.1 µM; in the assay on NCI/ADR-RES ovarian, 42.9 µM; with OVCAR-3 ovarian, 19 µM. In addition, the TGI in the assay with SW-620 colon was 2.53 µM; in the assay with TK-10 renal it was 3.72 µM.

For `CC(=O)O[C@H]1CSC[C@@H](OC(C)=O)C1[N+](=O)[O-]` (stereo partly specified), the TGI in the assay with ACHN renal is > 100 µM; with HOP-62 NSCLC it was > 100 µM; in the assay with KM12 colon it was > 100 µM; in the assay on NCI-H226 lung, > 100 µM; in the assay with OVCAR-3 ovarian, 55.3 µM; in the assay on SW-620 colon, 74.3 µM. Further, in the assay with TK-10 renal, the TGI is > 100 µM.

In the case of `CCN(CC)c1ccc(N=Nc2ccc(-c3nc4cccnc4s3)cc2)cc1`, the TGI in the assay on ACHN renal, in the assay with HOP-62 NSCLC, with KM12 colon, in the assay on NCI-H226 lung, with OVCAR-3 ovarian and in the assay with SW-620 colon was > 100 µM each time. Also, in the assay with TK-10 renal, the TGI was > 100 µM.

Regarding `O=C(CC1(O)C(=O)Nc2ccccc21)c1cccc(O)c1` (stereo unspecified), the TGI with ACHN renal, with HOP-62 NSCLC, in the assay on NCI-H226 lung, in the assay with OVCAR-3 ovarian, in the assay on SW-620 colon and in the assay on TK-10 renal was > 100 µM each time.

Consider `CC(C)(c1ccc(C=O)o1)c1ccc(C(C)(C)c2ccc(C=O)o2)o1`, for which the TGI in the assay on ACHN renal, in the assay on HOP-62 NSCLC, with KM12 colon, in the assay on NCI-H226 lung, with SW-620 colon and in the assay with TK-10 renal was > 100 µM each time.

`NN=C1/C(=C\c2ccccc2)CCC/C1=C/c1ccccc1`: the TGI in the assay with ACHN renal, with HOP-62 NSCLC, in the assay on KM12 colon, in the assay with OVCAR-3 ovarian, in the assay on SW-620 colon and in the assay on TK-10 renal was > 100 µM throughout.

With `CCOC(=O)C1=C(C)N(NC(=O)Nc2ccccc2)C2(N)N(NC(=O)Nc3ccccc3)C(C)=C(C(=O)OCC)C12C#N` (stereo unspecified), the TGI worked out at 51.4 µM in the assay with ACHN renal; 36.1 µM with NCI-H226 lung; 32.2 µM in the assay with OVCAR-3 ovarian; 36.2 µM in the assay on SW-620 colon; 49.3 µM in the assay on TK-10 renal.

Consider `CCNC(=O)O/N=C1\CCC2[C@@H]3CC=C4C[C@@H](OC(=O)NCC)CC[C@]4(C)C3CC[C@]12C` (stereo partly specified), for which the TGI was 4.96 µM with ACHN renal; > 100 µM with HOP-62 NSCLC; 13.8 µM in the assay with KM12 colon; 12.6 µM with OVCAR-3 ovarian; 16.7 µM in the assay with SW-620 colon; 5.9 µM with TK-10 renal.

Take `COc1cc(OC)c(/C=C/S(=O)(=O)Cc2ccc(OC)c(N)n2)c(OC)c1`: the GI50 with ACHN renal, in the assay with DU-145 prostate, with HOP-62 NSCLC, with KM12 colon, in the assay on OVCAR-3 ovarian and in the assay on SW-620 colon was < 0.01 µM throughout. For the same molecule, the GI50 is 57.3 µM in the assay on T-47D breast and > 100 µM with TK-10 renal. For the same molecule, the TGI in the assay on ACHN renal was > 100 µM; in the assay on DU-145 prostate, > 100 µM; with HOP-62 NSCLC it was > 100 µM; in the assay with KM12 colon, > 100 µM; in the assay with NCI-H226 lung, > 100 µM; in the assay on OVCAR-3 ovarian it was < 0.01 µM. Besides, the TGI in the assay on SW-620 colon, in the assay with T-47D breast and with TK-10 renal was > 100 µM throughout.

Turning to `CSCSCC(CO)NC(=O)/C=C/c1c(C)[nH]c(=O)[nH]c1=O` (stereo unspecified), the TGI with ACHN renal, with KM12 colon, with NCI-H226 lung, with OVCAR-3 ovarian, in the assay with SW-620 colon and in the assay with TK-10 renal was > 100 µM in each case.

For `N#Cc1c(N)oc2cc3c(C#N)c(N)oc3cc12`, the TGI with ACHN renal, in the assay with HOP-62 NSCLC, in the assay on KM12 colon, in the assay on OVCAR-3 ovarian, in the assay on SW-620 colon and in the assay on TK-10 renal was > 100 µM each time.

Consider `N#Cc1sc2nc3c(c(-c4ccccc4)c2c1N)CCCC3`, for which the TGI in the assay on ACHN renal, in the assay on KM12 colon, with NCI-H226 lung, in the assay with SW-620 colon and in the assay with TK-10 renal was > 100 µM each time.
